Assay results: ChEMBL document CHEMBL4043157, “Benzothiazole analogues: Synthesis, characterization, MO calculations with PM6 and DFT, in silico studies and in vitro antimalarial as DHFR inhibitors and antimicrobial activities” (Bioorg Med Chem, 2017)
≈ marks a conversion by molar mass, not a printed value. Calls of active or inactive are those of the source. The calls are words filed in the database; no cut-off is given here.

Tests used:
[1] = Cytotoxicity in Schizosaccharomyces pombe assessed as cell viability at 8 ug/ml (reference value: 94.67 +/- 1.53%); settings: Schizosaccharomyces pombe cells, read-out: Activity
[2] = Cytotoxicity in Schizosaccharomyces pombe assessed as cell viability at 4 ug/ml (reference value: 94.67 +/- 1.53%); settings: Schizosaccharomyces pombe cells, read-out: Activity
[3] = tested on: Streptococcus pyogenes; assay: Antimicrobial activity against Streptococcus pyogenes MTCC 442; type: functional
[4] = tested on: Candida albicans; assay: Antimicrobial activity against Candida albicans MTCC 227; type: functional
[5] = tested on: Aspergillus clavatus; assay: Antimicrobial activity against Aspergillus clavatus MTCC 1323; type: functional
[6] = tested on: Plasmodium falciparum; assay: Antimalarial activity against Plasmodium falciparum; type: functional
[7] = Cytotoxicity in Schizosaccharomyces pombe assessed as cell viability at 2 ug/ml (reference value: 94.67 +/- 1.53%); settings: Schizosaccharomyces pombe cells, read-out: Activity
[8] = tested on: Escherichia coli; assay: Antimicrobial activity against Escherichia coli MTCC 443; type: functional
[9] = tested on: Staphylococcus aureus; assay: Antimicrobial activity against Staphylococcus aureus MTCC 96; type: functional
[10] = Cytotoxicity in Schizosaccharomyces pombe assessed as cell viability at 6 ug/ml (reference value: 94.67 +/- 1.53%); settings: Schizosaccharomyces pombe cells, read-out: Activity
[11] = Cytotoxicity in Schizosaccharomyces pombe assessed as cell viability at 10 ug/ml (reference value: 94.67 +/- 1.53%); settings: Schizosaccharomyces pombe cells, read-out: Activity
[12] = tested on: Pseudomonas aeruginosa; assay: Antimicrobial activity against Pseudomonas aeruginosa MTCC 1688; type: functional
[13] = tested on: Schizosaccharomyces pombe; assay: Genotoxicity in Schizosaccharomyces pombe assessed as induction of DNA damage by measuring appearance of DNA smear DNA band at 2 to 10 ug/ml by agarose gel electrophoresis
[14] = tested on: Aspergillus clavatus; settings: MTCC 1323
[15] = molecular target: T1, Dihydrofolate reductase (Bos taurus, UniProt P00376); assay: Inhibition of bovine liver DHFR
T1 sequence (P00376 whole entry): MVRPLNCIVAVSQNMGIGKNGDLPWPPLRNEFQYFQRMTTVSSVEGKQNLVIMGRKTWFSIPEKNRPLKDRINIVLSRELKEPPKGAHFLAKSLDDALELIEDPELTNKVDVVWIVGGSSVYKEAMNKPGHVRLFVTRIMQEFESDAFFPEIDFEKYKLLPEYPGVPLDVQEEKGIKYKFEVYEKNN

| Compound | viability at 8 ug/ml [1] | viability at 4 ug/ml [2] | MIC [3] | MIC [4] | MIC [5] | IC50 [6] | viability at 2 ug/ml [7] | MIC [8] | MIC [9] | viability at 6 ug/ml [10] | viability at 10 ug/ml [11] | MIC [12] | Activity [13] | MIC [14] | IC50 [15] |
| --- | --- | --- | --- | --- | --- | --- | --- | --- | --- | --- | --- | --- | --- | --- | --- |
| Clc1ccc(/C=N/c2nc3ccccc3s2)cc1Cl | 77% | 84.3% | 327 µM (≈ 100 µg/mL) | inactive | 1630 µM (≈ 502 µg/mL) | 980 nM | 89% | 409 µM (≈ 126 µg/mL) | 409 µM (≈ 126 µg/mL) | 81% | 73.3% | 409 µM (≈ 126 µg/mL) | Toxic |  |  |
| O=[N+]([O-])c1ccccc1/C=N/c1nc2ccccc2s1 | 77% | 82% | 221 µM (≈ 62.6 µg/mL) | 3530 µM (≈ 1000 µg/mL) |  | 396 nM | 84.3% | 442 µM (≈ 125 µg/mL) | 353 µM (≈ 100 µg/mL) | 79.7% | 72.3% | 707 µM (≈ 200 µg/mL) | Toxic | inactive | 53.1 nM |
| NYSTATIN |  |  |  | 108 µM |  |  |  |  |  |  |  |  |  | 108 µM |  |
| Brc1ccc(/C=N/c2nc3ccccc3s2)cc1 | 68.3% | 73.3% | 633 µM (≈ 201 µg/mL) | inactive |  | 288 nM | 77.3% | 198 µM (≈ 62.8 µg/mL) | 791 µM (≈ 251 µg/mL) | 72.3% | 66.3% | 396 µM (≈ 126 µg/mL) | Toxic | inactive | 45.5 nM |
| CCc1nc(N)nc(N)c1-c1ccc(Cl)cc1 [PYRIMETHAMINE] |  |  |  |  |  | 1000 nM |  |  |  |  |  |  |  |  |  |
| CCn1cc(C(=O)O)c(=O)c2cc(F)c(N3CCNCC3)cc21 [NORFLOXACIN] |  |  | 31 µM (≈ 9.9 µg/mL) |  |  |  |  | 31 µM (≈ 9.9 µg/mL) | 31 µM (≈ 9.9 µg/mL) |  |  | 31 µM (≈ 9.9 µg/mL) |  |  |  |
| O=[N+]([O-])c1cccc(/C=N/c2nc3ccccc3s2)c1 | 74.7% | 84% | 883 µM (≈ 250 µg/mL) | 1770 µM (≈ 501 µg/mL) | 883 µM (≈ 250 µg/mL) | 201 nM | 88.7% | 883 µM (≈ 250 µg/mL) | 707 µM (≈ 200 µg/mL) | 79.3% | 70.3% | 221 µM (≈ 62.6 µg/mL) | Toxic |  | 31.2 nM |
| C(=N\c1nc2ccccc2s1)/c1ccco1 | 62.3% | 73% | 439 µM (≈ 100 µg/mL) | 4380 µM (≈ 1000 µg/mL) |  | 1860 nM | 78.7% | 548 µM (≈ 125 µg/mL) | 877 µM (≈ 200 µg/mL) | 64% | 61.7% | 877 µM (≈ 200 µg/mL) | Toxic | inactive |  |
| O=C(N[C@H](CO)[C@H](O)c1ccc([N+](=O)[O-])cc1)C(Cl)Cl [CHLORAMPHENICOL] |  |  | 155 µM (≈ 50.1 µg/mL) |  |  |  |  | 155 µM (≈ 50.1 µg/mL) | 155 µM (≈ 50.1 µg/mL) |  |  | 155 µM (≈ 50.1 µg/mL) |  |  |  |
| C(=N\c1nc2ccccc2s1)/c1ccc[nH]1 | 71.7% | 82.3% | 440 µM (≈ 100 µg/mL) | 2200 µM (≈ 500 µg/mL) | 4400 µM (≈ 1000 µg/mL) | 1910 nM | 87% | 881 µM (≈ 200 µg/mL) | 551 µM (≈ 125 µg/mL) | 74.3% | 69.7% | 1100 µM (≈ 250 µg/mL) | Toxic |  |  |
| COC1=CC(=O)C[C@@H](C)[C@]12Oc1c(Cl)c(OC)cc(OC)c1C2=O [GRISEOFULVIN] |  |  |  | 1420 µM (≈ 501 µg/mL) | 284 µM (≈ 100 µg/mL) |  |  |  |  |  |  |  |  |  |  |
| C(=N\c1nc2ccccc2s1)/c1cccs1 | 73% | 81.7% | 410 µM (≈ 100 µg/mL) | 4100 µM (≈ 1000 µg/mL) |  | 1020 nM | 86% | 256 µM (≈ 62.6 µg/mL) | 410 µM (≈ 100 µg/mL) | 80.7% | 67% | 410 µM (≈ 100 µg/mL) | Toxic | inactive |  |
| Oc1ccc(/C=N/c2nc3ccccc3s2)cc1 | 68.3% | 75% | 1970 µM (≈ 500 µg/mL) | inactive |  | 386 nM | 87% | 394 µM (≈ 100 µg/mL) | 984 µM (≈ 250 µg/mL) | 69.3% | 65.3% | 394 µM (≈ 100 µg/mL) | Toxic | inactive | 51.2 nM |
| Fc1ccc(/C=N/c2nc3ccccc3s2)cc1 | 72.3% | 81.7% | 391 µM (≈ 100 µg/mL) | 1950 µM (≈ 501 µg/mL) | 1950 µM (≈ 501 µg/mL) | 1480 nM | 86.3% | 781 µM (≈ 200 µg/mL) | 244 µM (≈ 62.5 µg/mL) | 73% | 71.7% | 976 µM (≈ 250 µg/mL) | Toxic |  |  |
| Clc1ccc(/C=N/c2nc3ccccc3s2)cc1 | 78% | 87% | 368 µM (≈ 100 µg/mL) | 3680 µM (≈ 1000 µg/mL) | 1840 µM (≈ 501 µg/mL) | 353 nM | 89.3% | 735 µM (≈ 200 µg/mL) | 460 µM (≈ 125 µg/mL) | 82.7% | 75.3% | 460 µM (≈ 125 µg/mL) | Toxic |  | 41.5 nM |
| O=C(O)c1cn(C2CC2)c2cc(N3CCNCC3)c(F)cc2c1=O [CIPROFLOXACIN] |  |  | 151 µM (≈ 50 µg/mL) |  |  |  |  | 75 µM (≈ 24.9 µg/mL) | 151 µM (≈ 50 µg/mL) |  |  | 75 µM (≈ 24.9 µg/mL) |  |  |  |
| CC1(C)S[C@@H]2[C@H](NC(=O)[C@H](N)c3ccccc3)C(=O)N2[C@H]1C(=O)O [AMPICILLIN] |  |  | 286 µM (≈ 99.9 µg/mL) |  |  |  |  | 286 µM (≈ 99.9 µg/mL) | 716 µM (≈ 250 µg/mL) |  |  | 286 µM (≈ 99.9 µg/mL) |  |  |  |
